Laboratory results: patent US20220193043A1 (CIPLA LIMITED, priority 2019, published 2022)

What was measured:
[1] = Procedure: Bioanalysis was performed using a fit-for-purpose LC-MS/MS method for the quantification of tenofovir in rat plasma samples. The calibration curve (CC) for the method consisted of nine non-zero calibration standards along with a double blank and zero standard samples. Study samples were analyzed along with three sets of quality control samples (18 QC samples; low, medium and high QC samples).
Plasma pharmacokinetic parameters were calculated using the non-compartmental analysis tool of Phoenix software (Version 6.3) and were determined from individual animals in each group. The peak plasma concentration (C), time to achieve peak plasma concentration (Tmax), the area under the plasma concentration-time curve (AUC0-t and AUCinf), AUC Extra (%), elimination half-life (T1/2), clearance (CL), volume of distribution Vd (L/kg) and Mean residence time (MRT) were calculated from intravenous group. The peak plasma concentration (C), time to achieve peak plasma concentration (T), AUC0-t and AUCinf, AUC Extra (%), Mean residence time (MRT) and absolute oral bioavailability (F) were calculated from the oral group.

Staphylococcus aurues = details: cited from earlier work
[2] = cited from earlier work

Tizanidine hydrochloride [Tizanidine HCl]
AUCINF ([1]; rat, in vivo, po, 3 mg/kg): 111 ± 20 ng·h/mL
AUClast ([1]; rat, in vivo, po, 3 mg/kg): 106 ± 17.7 ng·h/mL
Vz/F_obs(PO) ([1]; rat, in vivo, po, 3 mg/kg): 71.9 ± 36.1 L/kg

COc1ccc2cc3[n+](cc2c1OC)CCc1cc2c(cc1-3)OCO2 [berberine]
antimicrobial activity (Staphylococcus aurues; berberine alone, in solution): very weak
increase of antimicrobial activity of berberine (Staphylococcus aurues; in combination with 5-Methoxy hydnocarpin (5-MIC), against Staphylococcus aurues): 200 folds

[2H]C1([2H])N=C(Nc2c(Cl)ccc3nsnc23)NC1([2H])[2H] [Tizanidine D4]
CLF_Obs(PO) ([1]; rat plasma, 3 mg/kg PO): 405 ± 189 mL/min/kg

Oc1ccc(C=Cc2cc(O)cc(O)c2)cc1 [resveratrol]
water solubility [2]: < 50 µg/mL
